In US6713265B1 (Synaptic Pharmaceutical Corporation, priority 1999, dated 2004):

What was measured:
human Y1 receptor = molecular target: T1, human Y1 receptor (Homo sapiens, UniProt P25929); assay: ^125I-PYY binding to membranes, cloned human Y1 receptor; settings: read-out: Binding Affinity Ki vs. ^125I-PYY, Human Receptor Y1; Table 14; stably transfected 293 cells (compound 1 also COS-7)
T1 construct: expressed in transfected cells; host or cells: COS-7 (transient)
T1 sequence (P25929 1-384): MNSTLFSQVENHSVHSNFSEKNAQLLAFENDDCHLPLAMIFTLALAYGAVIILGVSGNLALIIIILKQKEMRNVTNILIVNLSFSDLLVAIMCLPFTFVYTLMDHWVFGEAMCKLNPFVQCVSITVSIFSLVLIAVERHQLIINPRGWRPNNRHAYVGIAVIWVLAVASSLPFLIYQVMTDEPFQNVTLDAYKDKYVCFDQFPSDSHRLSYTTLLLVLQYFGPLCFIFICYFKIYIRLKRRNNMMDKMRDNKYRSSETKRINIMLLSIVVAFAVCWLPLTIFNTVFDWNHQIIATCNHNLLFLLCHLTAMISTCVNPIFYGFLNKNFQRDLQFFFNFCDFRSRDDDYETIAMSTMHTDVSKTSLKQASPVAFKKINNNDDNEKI

human Y2 receptor = molecular target: T2, human Y2 receptor (Homo sapiens, UniProt P49146); assay: ^125I-PYY binding to membranes, cloned human Y2 receptor; settings: read-out: Binding Affinity Ki vs. ^125I-PYY, Human Receptor Y2; Table 14; stably transfected 293 cells (compound 1 also COS-7)
T2 construct: expressed in transfected cells; host or cells: COS-7 (transient)
T2 sequence (P49146 1-381): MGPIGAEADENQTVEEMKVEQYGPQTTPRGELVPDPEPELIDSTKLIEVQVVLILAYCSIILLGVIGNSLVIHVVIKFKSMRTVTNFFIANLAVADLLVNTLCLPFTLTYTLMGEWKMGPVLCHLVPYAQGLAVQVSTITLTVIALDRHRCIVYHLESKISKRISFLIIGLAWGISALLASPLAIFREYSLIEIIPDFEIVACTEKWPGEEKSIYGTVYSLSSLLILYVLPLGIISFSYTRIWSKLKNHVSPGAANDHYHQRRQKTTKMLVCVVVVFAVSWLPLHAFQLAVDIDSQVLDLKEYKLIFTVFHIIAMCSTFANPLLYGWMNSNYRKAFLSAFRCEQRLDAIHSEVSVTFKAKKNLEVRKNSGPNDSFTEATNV

5HT7 = 5HT7 (Homo sapiens, UniProt P34969); assay: Binding at cloned human 5HT7 receptor
α1d = molecular target: T3, α1d (Homo sapiens, UniProt P25100); assay: Binding at cloned human α1d adrenergic receptor
T3 sequence (P25100 1-572): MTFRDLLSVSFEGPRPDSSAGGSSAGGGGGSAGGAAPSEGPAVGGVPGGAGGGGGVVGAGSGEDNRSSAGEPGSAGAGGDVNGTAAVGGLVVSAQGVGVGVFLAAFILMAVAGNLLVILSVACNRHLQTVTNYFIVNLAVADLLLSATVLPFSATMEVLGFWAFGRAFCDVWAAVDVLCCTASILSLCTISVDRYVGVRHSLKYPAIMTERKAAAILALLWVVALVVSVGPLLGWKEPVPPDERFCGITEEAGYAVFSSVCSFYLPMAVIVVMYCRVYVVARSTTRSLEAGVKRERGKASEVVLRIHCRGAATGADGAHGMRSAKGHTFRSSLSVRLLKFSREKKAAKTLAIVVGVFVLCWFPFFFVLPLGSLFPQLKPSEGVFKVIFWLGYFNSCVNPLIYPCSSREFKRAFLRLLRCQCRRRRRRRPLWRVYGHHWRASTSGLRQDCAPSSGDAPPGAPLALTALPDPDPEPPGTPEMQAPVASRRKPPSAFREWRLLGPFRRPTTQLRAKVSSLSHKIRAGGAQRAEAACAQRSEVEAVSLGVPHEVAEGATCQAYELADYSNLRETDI

α1b = molecular target: T4, α1b (Homo sapiens, UniProt P35368); assay: Binding at cloned human α1b adrenergic receptor
T4 sequence (P35368 1-520): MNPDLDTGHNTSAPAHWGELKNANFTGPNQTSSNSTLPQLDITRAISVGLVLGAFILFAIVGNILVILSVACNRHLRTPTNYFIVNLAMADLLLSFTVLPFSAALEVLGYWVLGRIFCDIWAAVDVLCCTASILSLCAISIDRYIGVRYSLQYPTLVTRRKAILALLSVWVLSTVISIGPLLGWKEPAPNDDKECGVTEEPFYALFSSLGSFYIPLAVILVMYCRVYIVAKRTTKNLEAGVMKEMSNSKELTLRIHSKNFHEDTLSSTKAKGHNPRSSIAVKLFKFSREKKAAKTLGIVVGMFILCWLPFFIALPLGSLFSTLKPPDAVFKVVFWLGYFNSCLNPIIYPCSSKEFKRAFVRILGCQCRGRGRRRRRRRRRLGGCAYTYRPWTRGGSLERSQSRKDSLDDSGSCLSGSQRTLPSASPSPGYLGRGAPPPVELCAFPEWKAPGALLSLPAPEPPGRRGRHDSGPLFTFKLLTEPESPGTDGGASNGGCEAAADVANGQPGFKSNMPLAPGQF

α1a = molecular target: T5, α1a (Homo sapiens, UniProt P35348); assay: Binding at cloned human α1a adrenergic receptor
T5 sequence (P35348 1-466): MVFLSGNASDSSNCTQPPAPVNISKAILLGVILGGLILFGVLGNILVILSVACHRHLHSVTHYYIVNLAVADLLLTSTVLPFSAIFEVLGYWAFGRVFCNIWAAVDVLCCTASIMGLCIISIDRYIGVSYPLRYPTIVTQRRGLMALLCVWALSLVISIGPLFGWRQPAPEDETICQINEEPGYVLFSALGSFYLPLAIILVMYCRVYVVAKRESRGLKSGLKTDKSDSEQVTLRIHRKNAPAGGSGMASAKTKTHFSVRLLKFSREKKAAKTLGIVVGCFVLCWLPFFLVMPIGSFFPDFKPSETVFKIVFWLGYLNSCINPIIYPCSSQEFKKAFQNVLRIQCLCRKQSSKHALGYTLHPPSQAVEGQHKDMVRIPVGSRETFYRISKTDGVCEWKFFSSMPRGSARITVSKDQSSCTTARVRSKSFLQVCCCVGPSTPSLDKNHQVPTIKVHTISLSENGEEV

5HT7, sequence (P34969 1-445 isoform P34969-2): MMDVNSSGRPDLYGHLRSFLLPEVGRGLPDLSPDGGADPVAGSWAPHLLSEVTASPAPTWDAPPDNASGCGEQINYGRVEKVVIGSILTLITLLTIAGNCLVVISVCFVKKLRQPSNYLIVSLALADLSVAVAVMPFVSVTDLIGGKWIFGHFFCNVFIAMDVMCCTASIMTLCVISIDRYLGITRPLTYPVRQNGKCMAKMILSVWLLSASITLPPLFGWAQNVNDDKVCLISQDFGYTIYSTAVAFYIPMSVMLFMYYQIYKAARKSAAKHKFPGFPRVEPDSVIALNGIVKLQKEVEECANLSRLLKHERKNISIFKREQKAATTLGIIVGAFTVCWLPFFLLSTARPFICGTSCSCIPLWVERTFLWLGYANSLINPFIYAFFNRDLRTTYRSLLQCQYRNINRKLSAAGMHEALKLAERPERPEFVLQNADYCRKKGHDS

## Cl.O=S(=O)(NC[C@H]1CC[C@H](CNCC2CCc3ccccc3C2)CC1)c1cccc2ccccc12 (mixture of isomers) [Compound 19]
Human Y1 receptor
  Ki: 3.55 µM
Human Y2 receptor
  Ki: 0.955 µM
5HT7
  pKi 5HT7: 6.42
α1d
  pKi α1d: 6.90
α1b
  pKi α1b: 7.35
α1a
  pKi α1a: 7.47

## Cl.O=[N+]([O-])c1ccccc1S(=O)(=O)NC[C@H]1CC[C@H](CNCC2CCc3ccccc3C2)CC1 (mixture of isomers) [Compound 20]
Human Y1 receptor
  Ki: 16 µM
Human Y2 receptor
  Ki: 7.76 µM
5HT7
  pKi 5HT7: 6.37
α1d
  pKi α1d: 7.01
α1b
  pKi α1b: 7.22
α1a
  pKi α1a: 7.72

## Cl.Cl.Nc1ccccc1S(=O)(=O)NC[C@H]1CC[C@H](CNCC2CCc3ccccc3C2)CC1 (mixture of isomers) [Compound 22]
Human Y1 receptor
  Ki: 17.2 µM
Human Y2 receptor
  Ki: 7.57 µM
5HT7
  pKi 5HT7: 6.39
α1d
  pKi α1d: 6.80
α1b
  pKi α1b: 6.98
α1a
  pKi α1a: 7.34
